According to paper PMC8445441, “Elucidating the mechanism by which synthetic helper peptides sensitize Pseudomonas aeruginosa to multiple antibiotics” (PLoS Pathogens, 2021):
Entries after “also recorded” stand apart in the source; their conditions may differ. Positions of bridges follow the written chain, without caps; N, C: chain ends. Non-standard residues stand in square brackets, D forms with d. Residues, ends and D or L forms follow the SMILES beside them. *: point of attachment. X1 = CC[C@H](C)CCCCC(=O)*; Dab = NCC[C@H](N)C(=O)O

Legend:
HEK-293 cells = conditions: high concentration of D-11; cited from earlier work
Text: Interes ... || Response: This comment is valuable. […] We believe that it is a safe drug candidate.

[1] = mice
Text: Since D-11 contains five positively charged amino acids, it is easier to bind to bacterial negatively charged membrane components.
However, we still carried out high-dose toxicity tests in mice according to the recommendations.

P. aeruginosa PAO1 = experiment: microbe, parasite or virus in culture; conditions: for MICac: the MIC for the antibiotic in the combination: S3 Table, PAO1
Procedure, shortened: (§1)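 Values are lowest concentrations showing no visible growth after 18 h at 37 °C. Drugs were serially halved in MHB and combined with equal volumes of a roughly 1 × 10^6 CFU/mL suspension, following CLSI guidance, in triplicate.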

[2] = cited from earlier work
P. aeruginosa HM-214 = system: P. aeruginosa HM-214; design: MICa: MIC of the antibiotic / MICac: MIC of the antibiotic in the combination: unit not given beside the values; conditions: strain HM-214, unit not given
Procedure, shortened: as §1

PAO1 in human blood = experiment: Antimicrobial activity in blood (ex vivo bacteremia model); type: cell-based, Pseudomonas aeruginosa; conditions: human blood, 5×10^7 CFU/mL PAO1; antibiotic combined with D-11 (4 μM); 4 hours
Method: Human blood of healthy individuals was obtained from Sanquin (certified Dutch organization responsible for meeting the need in healthcare for blood and blood products, https://www.sanquin.nl/) and was infected with 5×10^7 CFU/mL of PAO1. The blood was distributed at 0.5 mL in 2 mL Eppendorf tubes and treated with the antibiotics and peptides at the indicated concentrations at 37 °C for 4 hours. The samples were decimal serially diluted in PBS. Drops of 10 μL of each dilution on LB agar to track the development of infection. The experiment was performed in triplicate.

P. aeruginosa PA14 = experiment: microbe, parasite or virus in culture; design: MICa: MIC of the antibiotic / MICac: MIC of the antibiotic in the combination: unit not given beside the values; conditions: strain PA14, unit not given
Procedure, shortened: as §1

P. aeruginosa NR-31041 = experiment: microbe, parasite or virus in culture; design: MICa: MIC of the antibiotic / MICac: MIC of the antibiotic in the combination: unit not given beside the values; conditions: strain NR-31041, unit not given
Procedure, shortened: as §1

P. aeruginosa ATCC27853 = experiment: microbe, parasite or virus in culture; design: MICa: MIC of the antibiotic / MICac: MIC of the antibiotic in the combination: unit not given beside the values; conditions: strain ATCC27853, unit not given
Procedure, shortened: as §1

P. aeruginosa PAK = experiment: microbe, parasite or virus in culture; design: MICa: MIC of the antibiotic / MICac: MIC of the antibiotic in the combination: unit not given beside the values; conditions: strain PAK, unit not given
Procedure, shortened: as §1

P. aeruginosa NR-31040 = experiment: microbe, parasite or virus in culture; design: MICa: MIC of the antibiotic / MICac: MIC of the antibiotic in the combination: unit not given beside the values; conditions: strain NR-31040, unit not given
Procedure, shortened: as §1

P. aeruginosa AUMC-Pa-1 = conditions: strain AUMC-Pa-1, unit not given
Procedure, shortened: as §1

P. aeruginosa AUMC-Pa-2 = conditions: strain AUMC-Pa-2, unit not given
Procedure, shortened: as §1

P. aeruginosa AUMC-Pa-6 = experiment: microbe, parasite or virus in culture; conditions: strain AUMC-Pa-6, unit not given
Procedure, shortened: as §1

P. aeruginosa AUMC-Pa-5 = experiment: microbe, parasite or virus in culture; conditions: strain AUMC-Pa-5, unit not given
Procedure, shortened: as §1

P. aeruginosa AUMC-Pa-4 = experiment: microbe, parasite or virus in culture; conditions: strain AUMC-Pa-4, unit not given
Procedure, shortened: as §1

P. aeruginosa AUMC-Pa-3 = experiment: microbe, parasite or virus in culture; conditions: strain AUMC-Pa-3, unit not given
Procedure, shortened: as §1

[3] = system: clinical P. aeruginosa isolates; experiment: microbe, parasite or virus in culture; conditions: clinical isolates, 18 h
Procedure, shortened: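 MIC is the lowest drug concentration showing no visible growth after 18 h at 37 °C. Two-fold dilutions in MHB were combined with an equal volume of bacterial suspension (about 1 × 10^6 CFU/mL), following CLSI broth microdilution, in triplicate.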

CC[C@@H](C)[C@@H](NC(=O)[C@H](N)CCCNC(=N)N)C(=O)N[C@@H](C(=O)N[C@H](CCC(N)=O)C(=O)N[C@H](CCCNC(=N)N)C(=O)N[C@@H](C(=O)N[C@H](CCCCN)C(=O)N[C@H](CCCCN)C(=O)N[C@H](Cc1c[nH]c2ccccc12)C(=O)N[C@H](CC(C)C)C(=O)N[C@H](CCCNC(=N)N)C(N)=O)[C@H](C)CC)C(C)C [Peptide D-11] (H-[dR][dI][dV][dQ][dR][dI][dK][dK][dW][dL][dR]-NH2)
toxicity to HEK-293 cells (in words) (HEK-293 cells): not toxic to HEK-293 cells; also recorded: no toxicity to HEK-293 cells
side effects in vivo (in words) ([1]; 10 mg/kg D-11): no obvious side effects were observed
irritation after subcutaneous injection (in words) ([1]; subcutaneous 20 mg/kg D-11): slightly irritating
MIC of the peptide (P. aeruginosa PAO1; PAO1, 18 h): 32 µM
MICb: the MIC of D-11 (P. aeruginosa PAO1; PAO1, 18 h): 32 µM
MICb: the MIC of the peptide (P. aeruginosa PAO1; PAO1, 18 h): 32 µM
stability in plasma (in words) [2]: stable in plasma

CC[C@H](C)CCCCC(=O)N[C@@H](CCN)C(=O)N[C@H](C(=O)N[C@@H](CCN)C(=O)N[C@H]1CCNC(=O)[C@H]([C@@H](C)O)NC(=O)[C@H](CCN)NC(=O)[C@H](CCN)NC(=O)[C@H](CC(C)C)NC(=O)[C@@H](Cc2ccccc2)NC(=O)[C@H](CCN)NC1=O)[C@@H](C)O [Polymyxin B] (X1-[Dab]T[Dab][Dab][Dab][dF]L[Dab][Dab]T; lactam 4-C (inferred); N-terminus assumed)
MICa: MIC of the antibiotic (P. aeruginosa HM-214; antibiotic alone): 0.25
MICac: MIC of the antibiotic in the combination (P. aeruginosa HM-214; with D-11 at MICbc 4): 0.031
antibacterial effect in blood (in words) (PAO1 in human blood): relative week antibacterial effects
MICa: MIC of the antibiotic (P. aeruginosa PA14; antibiotic alone): 0.125
MICac: MIC of the antibiotic in the combination (P. aeruginosa PA14; with D-11 at MICbc 4): 0.008
MICa: MIC of the antibiotic (P. aeruginosa NR-31041; antibiotic alone): 0.125
MICac: MIC of the antibiotic in the combination (P. aeruginosa NR-31041; with D-11 at MICbc 4): 0.008
MICa: MIC of the antibiotic (P. aeruginosa ATCC27853; antibiotic alone): 0.125
MICac: MIC of the antibiotic in the combination (P. aeruginosa ATCC27853; with D-11 at MICbc 4): 0.008
MICa: MIC of the antibiotic (P. aeruginosa PAK; antibiotic alone): 0.125
MICac: MIC of the antibiotic in the combination (P. aeruginosa PAK; with D-11 at MICbc 4): 0.008
MICa: MIC of the antibiotic (P. aeruginosa NR-31040; antibiotic alone): 0.25
MICac: MIC of the antibiotic in the combination (P. aeruginosa NR-31040; with D-11 at MICbc 4): 0.031
MICa: MIC of the antibiotic (P. aeruginosa AUMC-Pa-1; antibiotic alone): 0.25
MICac: MIC of the antibiotic in the combination (P. aeruginosa AUMC-Pa-1; with D-11 at MICbc 4): 0.016
MICa: MIC of the antibiotic (P. aeruginosa AUMC-Pa-2; antibiotic alone): 0.25
MICac: MIC of the antibiotic in the combination (P. aeruginosa AUMC-Pa-2; with D-11 at MICbc 4): 0.016
MICa: MIC of the antibiotic (P. aeruginosa AUMC-Pa-6; antibiotic alone): 1
MICac: MIC of the antibiotic in the combination (P. aeruginosa AUMC-Pa-6; with D-11 at MICbc 4): 0.25
MICa: MIC of the antibiotic (P. aeruginosa AUMC-Pa-5; antibiotic alone): 1
MICac: MIC of the antibiotic in the combination (P. aeruginosa AUMC-Pa-5; with D-11 at MICbc 4): 0.125
MIC of polymyxin B (P. aeruginosa PAO1; 1×MIC used as positive control): 0.5 µg/mL
MICa: the MIC of antibiotics (P. aeruginosa PAO1; PAO1, 18 h): 0.25 µM
MICac: the MIC for the antibiotic in the combination (P. aeruginosa PAO1; with 2 μM D-11): 0.004 µM
MICac: the MIC for the antibiotic in the combination (P. aeruginosa PAO1; with 4 μM D-11): 0.001 µM
MICa: MIC of the antibiotic (P. aeruginosa AUMC-Pa-4; antibiotic alone): 1
MICac: MIC of the antibiotic in the combination (P. aeruginosa AUMC-Pa-4; with D-11 at MICbc 4): 0.5
MICa: MIC of the antibiotic (P. aeruginosa AUMC-Pa-3; antibiotic alone): 0.125
MICac: MIC of the antibiotic in the combination (P. aeruginosa AUMC-Pa-3; with D-11 at MICbc 4): 0.002
Antibiotic sensibility (MIC) of clinical P. aeruginosa isolate AUMC-Pa-1 [3]: 0.25 µM
Antibiotic sensibility (MIC) of clinical P. aeruginosa isolate AUMC-Pa-2 [3]: 0.25 µM
Antibiotic sensibility (MIC) of clinical P. aeruginosa isolate AUMC-Pa-3 [3]: 0.125 µM
Antibiotic sensibility (MIC) of clinical P. aeruginosa isolate AUMC-Pa-4 [3]: 1 µM
Antibiotic sensibility (MIC) of clinical P. aeruginosa isolate AUMC-Pa-5 [3]: 1 µM
Antibiotic sensibility (MIC) of clinical P. aeruginosa isolate AUMC-Pa-6 [3]: 1 µM
Antibiotic sensibility (MIC) of clinical P. aeruginosa isolate HM-214 [3]: 0.25 µM
Antibiotic sensibility (MIC) of clinical P. aeruginosa isolate NR-31040 [3]: 0.25 µM
Antibiotic sensibility (MIC) of clinical P. aeruginosa isolate NR-31041 [3]: 0.125 µM
